Literature values in patent US9775855B2, “Compositions comprising macrolide and tetracycline and their uses” (priority 2011, dated 2017).
Where two headings read alike, the source gives them in different places.

Key:
[1] = not given; remark: listed apart in the source
[2] = individuals treated for acne for an average of 9 months
[3] = room temperature

NNC(=O)c1ccncc1 [Isoniazid, 4-pyridinecarboxylic acid, hydrazide]
solubility in water: freely soluble

CN(C)c1ccc(O)c2c1C[C@H]1C[C@H]3[C@H](N(C)C)C(O)=C(C(N)=O)C(=O)[C@@]3(O)C(O)=C1C2=O [Minocycline]
penetration of the cerebral spinal fluid (CSF) ([1]; human beings, compared with doxycycline and other tetracyclines): better than doxycycline and other tetracyclines
crossing the blood-brain barrier ([1]; in vivo): capable of crossing the blood-brain barrier
frequency of adverse events [2]: one in a million

NC(=O)c1cnccn1 [Pyrazinamide, pyrazinecarboxamide]
solubility in water: sparingly soluble
stability [3]: stable at room temperature

CO[C@H]1/C=C/O[C@@]2(C)Oc3c(C)c(O)c4c(O)c(c(/C=N/N5CCN(C)CC5)c(O)c4c3C2=O)NC(=O)/C(C)=C\C=C\[C@H](C)[C@H](O)[C@@H](C)[C@@H](O)[C@@H](C)[C@H](OC(C)=O)[C@@H]1C [Rifampin, 3-[[(4-methyl-1-piperazinyl)imino]-methyl]-rifamycin]
solubility in water (at neutral pH): very slightly soluble
